The source of these data is publication PMC4195943, “A novel small-molecule MRCK inhibitor blocks cancer cell invasion” (Cell Communication and Signaling : CCS, 2014).

The target of test [1] is T1, PKAα (Homo sapiens, UniProt P17612).
T1 construct: purchased Eurofins
As to the kind of experiment: Kinase selectivity profiling (Eurofins), PKAα. In kind it is biochemical. An excerpt: (§1) The results of this screening were mapped over the annotated human kinome phylogenetic tree using Kinome Render (Figure 2).
(§2) Kinases inhibited less than 25% have their names in green text. Kinases inhibited >25% and ≤50% have yellow circles, >50% and ≤75% have orange circles, and >75% have red circles. In each case, the size of the circle is proportional to the percentage inhibition. ROCK1 and MRCKα positions are indicated on the tree for orientation purposes. Illustration reproduced courtesy of Cell Signaling Technology, Inc. (www.cellsignal.com).
(§3) MRCKα, MRCKβ, ROCK1 and ROCK2 assays were performed using an IMAP fluorescence polarization assay format (Molecular Devices Inc.). 8–12 nM of each kinase (Life Technologies) was incubated for 60 min at room temperature with 100 nM FAM-S6-ribosomal protein derived peptide (synthesized by Alta Biosciences, University of Birmingham UK) in the presence of 1 μM ATP and 0.5 mM MgCl2 in 20 mM Tris buffer (pH 7.4) containing 0.01% Tween-20 and 1 mM DTT (MRCKα and β); or 1 μM ATP, 10 mM MgCl2 in 20 mM Tris buffer (pH 7.5) containing 0.25 mM EGTA 0.01% Triton X-100 and 1 mM DTT (ROCK1 and ROCK2). […] After 30 min incubation to allow binding reagent to bind phosphorylated peptide, fluorescence polarization was measured on a Tecan Saphire^2 plate reader at excitation (470 nm) and emission (530 nm) wavelengths. […]

For test [2], the target named is ROCK1 (Homo sapiens, UniProt Q13464). As to the kind of experiment: MLC phosphorylation in MDA-MB-231 cells expressing doxycycline-induced ROCK1 kinase domain (quantitative western blot). Details: The kinase domains of MRCKβ (1–473), ROCK1 (1–535) or ROCK2 (1–532) were gene synthesized; expressed in transfected cells; host or cells: MDA-MB-231 D3H2LN-Luc Tet3G cells, pTRE3G-ROCK1 (1–535). The note with it: doxycycline-induced MDA-MB-231, 60 minutes treatment; read-out: cell based EC50, MLC phosphorylation induced by ROCK1. The procedure: (A) MDA-MB-231 breast cancer cells expressing doxycycline inducible ROCK1, ROCK2 or MRCKβ kinase domains were established as indicated. Following treatment with doxycycline for 18 hours to induce expression, cell lysates were western blotted with antibodies as indicated. […] All results are shown as mean ± standard error of n = 4 independent replicates.
Chain of ROCK1 (Q13464 1-535): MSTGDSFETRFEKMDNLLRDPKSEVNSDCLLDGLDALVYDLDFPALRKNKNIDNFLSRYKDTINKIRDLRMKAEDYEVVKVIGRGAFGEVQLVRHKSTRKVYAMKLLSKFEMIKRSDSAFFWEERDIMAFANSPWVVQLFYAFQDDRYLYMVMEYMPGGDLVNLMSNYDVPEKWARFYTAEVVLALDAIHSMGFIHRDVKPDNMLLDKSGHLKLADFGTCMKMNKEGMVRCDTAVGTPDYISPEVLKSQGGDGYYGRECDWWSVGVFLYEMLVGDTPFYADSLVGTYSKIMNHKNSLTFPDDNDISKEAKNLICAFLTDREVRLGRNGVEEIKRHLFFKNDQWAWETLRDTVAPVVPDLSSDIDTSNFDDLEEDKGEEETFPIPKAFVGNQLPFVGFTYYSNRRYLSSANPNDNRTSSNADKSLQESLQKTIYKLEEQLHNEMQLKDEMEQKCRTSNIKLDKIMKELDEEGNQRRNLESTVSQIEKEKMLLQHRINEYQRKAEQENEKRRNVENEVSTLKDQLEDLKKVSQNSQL
MDA-MB-231 D3H2LN-Luc cells (Caliper LifeScience) were grown in MEM/EBSS (Hyclone) supplemented with 10% fetal bovine serum (FBS) (Gibco), 1 mM Sodium Pyruvate (Sigma) 2 mM L-glutamine (Gibco), 1× MEM non-essential amino acids (Gibco) plus penicillin-streptomycin (10 Units/ml and 10 μg/ml respectively) at 37°C in 5% CO2 in a humidified incubator. MDA-MB-231 D3H2LN-Luc TetOn MRCKβ, ROCK1 and ROCK2 selective cell lines were grown in the same media with 10% FBS replaced with 10% Tet System Approved FBS (Clontech).
The kinase domains of MRCKβ (1–473), ROCK1 (1–535) or ROCK2 (1–532) were gene synthesized (Genscript) and subcloned into pTRE3G (Clontech). MDA-MB-231 D3H2LN-Luc Tet3G cells were co-transfected with pTRE3G-MRCKβ (1–473), pTRE3G-ROCK1 (1–535) or pTRE3G-ROCK2 (1–532), together with a linear Pur^r-selection marker using Xfect transfection reagent according to manufacturer’s instructions. […] Each clone was treated with or without doxycycline (1 μg/ml) for 24 hours and kinase domain expression and activity determined by western blotting. […]

In test [3] the target is T2, PRK2 (Homo sapiens, UniProt Q16513).
T2 construct: purchased Eurofins
T2 sequence (Q16513 whole entry): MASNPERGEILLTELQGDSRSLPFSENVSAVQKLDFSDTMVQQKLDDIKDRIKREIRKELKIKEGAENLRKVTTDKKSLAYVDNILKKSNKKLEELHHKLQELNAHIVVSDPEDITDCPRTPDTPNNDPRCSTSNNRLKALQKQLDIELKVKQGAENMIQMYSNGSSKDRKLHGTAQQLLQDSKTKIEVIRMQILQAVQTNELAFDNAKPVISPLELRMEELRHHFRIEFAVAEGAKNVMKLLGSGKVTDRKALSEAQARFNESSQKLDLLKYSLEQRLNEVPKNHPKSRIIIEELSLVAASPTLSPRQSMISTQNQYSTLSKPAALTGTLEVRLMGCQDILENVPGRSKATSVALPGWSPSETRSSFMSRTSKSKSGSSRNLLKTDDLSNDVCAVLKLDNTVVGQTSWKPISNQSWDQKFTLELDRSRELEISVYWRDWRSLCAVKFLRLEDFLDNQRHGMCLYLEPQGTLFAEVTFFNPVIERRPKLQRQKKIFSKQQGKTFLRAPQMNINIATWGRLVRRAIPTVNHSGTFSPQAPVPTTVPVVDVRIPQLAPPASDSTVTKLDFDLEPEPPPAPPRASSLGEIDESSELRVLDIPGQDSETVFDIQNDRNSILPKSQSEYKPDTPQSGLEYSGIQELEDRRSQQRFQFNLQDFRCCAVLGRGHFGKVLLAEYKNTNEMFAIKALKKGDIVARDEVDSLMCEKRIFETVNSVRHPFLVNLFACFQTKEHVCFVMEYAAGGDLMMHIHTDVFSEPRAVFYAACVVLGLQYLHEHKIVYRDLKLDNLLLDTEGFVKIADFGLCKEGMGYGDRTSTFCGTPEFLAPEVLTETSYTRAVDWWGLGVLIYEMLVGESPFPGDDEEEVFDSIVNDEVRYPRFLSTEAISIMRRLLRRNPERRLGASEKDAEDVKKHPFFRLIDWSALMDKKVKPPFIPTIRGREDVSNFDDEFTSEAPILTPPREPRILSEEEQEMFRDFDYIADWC
As to the kind of experiment: Kinase selectivity profiling (Eurofins), PRK2. The test is classed as biochemical.
From the text: as §1, §2, §3

Test [4] addresses MRCKα (Homo sapiens, UniProt Q5VT25). Kind of test: IMAP fluorescence polarization kinase assay, MRCKα. In kind it is biochemical. The note with it: calculated with Cheng-Prusoff equation. As to the method: MRCKα, MRCKβ, ROCK1 and ROCK2 assays were performed using an IMAP fluorescence polarization assay format (Molecular Devices Inc.). 8–12 nM of each kinase (Life Technologies) was incubated for 60 min at room temperature with 100 nM FAM-S6-ribosomal protein derived peptide (synthesized by Alta Biosciences, University of Birmingham UK) in the presence of 1 μM ATP and 0.5 mM MgCl2 in 20 mM Tris buffer (pH 7.4) containing 0.01% Tween-20 and 1 mM DTT (MRCKα and β); or 1 μM ATP, 10 mM MgCl2 in 20 mM Tris buffer (pH 7.5) containing 0.25 mM EGTA 0.01% Triton X-100 and 1 mM DTT (ROCK1 and ROCK2). Typically, dose response analyses were performed over concentration ranges from 0.005 - 100 μM. Reactions were stopped by adding 2 assay volumes of 0.25% (v/v) IMAP binding reagent in 1× IMAP binding buffer A (Molecular Devices). After 30 min incubation to allow binding reagent to bind phosphorylated peptide, fluorescence polarization was measured on a Tecan Saphire^2 plate reader at excitation (470 nm) and emission (530 nm) wavelengths. Inhibition was calculated using no inhibitor and no enzyme controls as 0 and 100% inhibition, respectively.

Chain of MRCKα (Q5VT25 whole entry): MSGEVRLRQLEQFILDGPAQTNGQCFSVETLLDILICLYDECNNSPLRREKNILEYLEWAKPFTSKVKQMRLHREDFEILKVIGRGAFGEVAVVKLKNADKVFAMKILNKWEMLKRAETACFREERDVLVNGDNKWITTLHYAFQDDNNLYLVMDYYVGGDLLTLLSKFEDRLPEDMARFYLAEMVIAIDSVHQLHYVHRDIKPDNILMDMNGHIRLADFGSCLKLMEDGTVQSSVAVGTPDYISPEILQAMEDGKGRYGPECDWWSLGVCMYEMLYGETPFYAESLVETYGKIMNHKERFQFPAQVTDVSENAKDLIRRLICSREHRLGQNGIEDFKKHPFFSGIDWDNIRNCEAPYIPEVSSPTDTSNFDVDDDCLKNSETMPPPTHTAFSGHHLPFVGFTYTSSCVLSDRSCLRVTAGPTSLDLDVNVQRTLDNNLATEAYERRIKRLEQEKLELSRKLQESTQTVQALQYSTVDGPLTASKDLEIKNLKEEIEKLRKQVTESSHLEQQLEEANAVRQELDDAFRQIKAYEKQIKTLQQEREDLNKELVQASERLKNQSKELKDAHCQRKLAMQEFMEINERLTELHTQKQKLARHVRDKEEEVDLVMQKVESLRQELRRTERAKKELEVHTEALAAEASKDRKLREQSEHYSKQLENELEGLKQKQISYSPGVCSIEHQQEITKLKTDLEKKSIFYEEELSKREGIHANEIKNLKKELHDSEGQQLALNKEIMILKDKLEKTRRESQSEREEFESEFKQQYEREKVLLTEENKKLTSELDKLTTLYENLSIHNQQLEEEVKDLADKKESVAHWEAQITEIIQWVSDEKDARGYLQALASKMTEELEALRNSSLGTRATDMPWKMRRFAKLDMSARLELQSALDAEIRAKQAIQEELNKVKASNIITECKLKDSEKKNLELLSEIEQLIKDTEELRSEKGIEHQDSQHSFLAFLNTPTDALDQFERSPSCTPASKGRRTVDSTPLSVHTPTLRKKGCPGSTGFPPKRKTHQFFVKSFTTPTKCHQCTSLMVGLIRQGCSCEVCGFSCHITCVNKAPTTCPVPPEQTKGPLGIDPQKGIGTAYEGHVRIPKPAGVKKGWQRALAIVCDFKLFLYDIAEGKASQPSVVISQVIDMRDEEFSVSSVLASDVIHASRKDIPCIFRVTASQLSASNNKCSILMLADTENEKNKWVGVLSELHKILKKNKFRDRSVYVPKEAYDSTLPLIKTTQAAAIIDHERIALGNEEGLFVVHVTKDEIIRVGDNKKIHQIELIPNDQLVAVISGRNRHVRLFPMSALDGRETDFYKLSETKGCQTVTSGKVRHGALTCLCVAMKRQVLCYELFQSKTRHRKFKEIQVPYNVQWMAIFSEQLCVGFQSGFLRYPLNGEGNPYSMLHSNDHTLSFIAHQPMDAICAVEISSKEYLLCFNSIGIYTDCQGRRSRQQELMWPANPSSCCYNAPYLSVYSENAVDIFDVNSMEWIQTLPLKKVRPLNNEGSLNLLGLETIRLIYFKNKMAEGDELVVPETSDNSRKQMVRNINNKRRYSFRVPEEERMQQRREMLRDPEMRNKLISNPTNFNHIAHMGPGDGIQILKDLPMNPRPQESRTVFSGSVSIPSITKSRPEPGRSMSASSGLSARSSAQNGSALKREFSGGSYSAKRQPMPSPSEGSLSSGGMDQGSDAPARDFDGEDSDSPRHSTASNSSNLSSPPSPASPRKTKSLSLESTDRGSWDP

Regarding `O=C(Nc1cn[nH]c1-c1ccccn1)c1nn(C2CCNCC2)cc1Cl` [BDP5290, 4-chloro-1-(4-piperidyl)-N-[5-(2-pyridyl)-1H-pyrazol-4-yl]pyrazole-3-carboxamide], the inhibition at 10 µM in test [1] and in test [3] was greater than 75% throughout. Moreover, the EC50 in test [2] was found to be 501 nM. Further, the inhibition constant Ki in test [4] is 10 nM.
